# Experimental data reported in patent US20260344670A1, “BIXLOZONE MIXTURES WITH PETHOXAMID” (FMC CORPORATION, priority 2022, published 2026).
# What was measured:
# Format in all cases: in vivo
# [1] = system: weeds; experiment: Example 4: pre-emergence weed control on corn at relatively medium application rates of pethoxamid (Table 12); settings: 800 g/ha pethoxamid
# Procedure: (§1) The herbicidal compounds bixlozone and pethoxamid were applied in a variety of forms and at a variety of amounts, application rates, and normalities. Efficacy of the herbicidal compositions was evaluated with reference to a scale of 0% to 100% in comparison with untreated control plots. 0 means no damage to the harmful plants and 100 means complete destruction of the harmful plants. Plants per square meter is indicated by “pl/m^2”, and grams per hectare is indicated by “g/ha”. The acronym “EC” means emulsifiable concentrate (a liquid, homogenous formulation to be applied as an emulsion after dilution with water); “SC” means suspension concentrate (a stable suspension of active ingredient(s) with water as the fluid); “ZC” refers to a mixed formulation of CS and SC (a stable suspension of capsules and active ingredient(s) in a fluid, normally intended for dilution with water before use).
# (§2) Various forms, compositions, and mixtures of bixlozone and pethoxamid were applied to corn before emergence. […] Mixtures of bixlozone with 800 g/ha pethoxamid improved weed spectrum on a range of broad leaf weeds (e.g., CHEAL and ABUTH) and grasses (e.g., ECHCG, DIGSA, and SETVI). Combinations of bixlozone and pethoxamid in pre-emergence applications were very safe with no clear pethoxamid rate effect.
# [2] = system: weeds; experiment: Example 5: pre-emergence weed control on corn at relatively low application rates of pethoxamid (Table 13); settings: 300 g/ha pethoxamid
# Procedure: as §1
# as §2, with “300” for “800”, “SOLNI” for “CHEAL”, “ABUTH).” for “ABUTH) and grasses (e.g., ECHCG, DIGSA, and SETVI).”
# [3] = system: weeds; experiment: Example 3: pre-emergence weed control on corn at relatively high application rates of pethoxamid (Tables 8-11); settings: 1200 g/ha pethoxamid
# Description: [formula] • where ppm=milligrams of active ingredient (=a.i.) per liter of spray mixture X=% action by component A using p ppm of active ingredient Y=% action by component B using q ppm of active ingredient. If the ratio R defined as the action actually observed (O) divided by the expected action (E) is >1 then the action of the combination is superadditive, i.e. there is a synergistic effect. For a more detailed description of the Colby formula, see Colby, S. R. “Calculating Synergistic and Antagonistic Responses of Herbicide Combination”, Weeds, Vol. 15, pages 20-22; 1967; see also Limpel et al., Proc. NEWCC 16:48-53 (1962).
# As used herein, rating timings correspond to the following: A1=weed assessment at BBCH 11-12; A2=4 weeks after the application; A3=when ZEAMX crop reaches BBCH 18 (row closure); and A4=BBCH 51-59 of the ZEAMX crop.
# The herbicidal compounds bixlozone and pethoxamid were applied in a variety of forms and at a variety of amounts, application rates, and normalities. Efficacy of the herbicidal compositions was evaluated with reference to a scale of 0% to 100% in comparison with untreated control plots. 0 means no damage to the harmful plants and 100 means complete destruction of the harmful plants. Plants per square meter is indicated by “pl/m^2”, and grams per hectare is indicated by “g/ha”. […]
compound,measurement,setting,value
CC1(C)CON(Cc2ccc(Cl)cc2Cl)C1=O [bixlozone],efficacy (in words),[1],"minimal differences in performance between SC and CS were observed, except on CHEAL and ABUTH"
same,efficacy (in words),[2],"minimal differences in performance between SC and CS were observed, except on POLSS, SOLNI, ABUTH, and ECHCG"
same,efficacy (in words),[3],"minimal differences in performance between SC and CS were observed, except on CHEAL and ECHCG"
